Test results: ChEMBL document CHEMBL4715821, “Discovery of 4-ethoxy-7H-pyrrolo[2,3-d]pyrimidin-2-amines as potent, selective and orally bioavailable LRRK2 inhibitors” (Bioorg Med Chem Lett, 2018)

What was measured:
[1] = target: Serine/threonine-protein kinase 38 (Homo sapiens) (UniProt Q15208); assay: Inhibition of wild-type human partial length NDR1 (N33 to E449 residues) expressed in mammalian expression system assessed as residual activity at 1 uM by Kinomescan method relative to control
[2] = target: Aurora kinase A (Homo sapiens) (UniProt O14965); assay: Inhibition of wild-type human partial length AURKA (E122 to K401 residues) expressed in mammalian expression system assessed as residual activity at 1 uM by Kinomescan method relative to control
Homo sapiens = species: Homo sapiens; assay: Inhibition of wild-type human full length CDK9 (M1 to F372 residues)/cyclin T1 expressed in bacterial expression system assessed as residual activity at 1 uM by Kinomescan method relative to control
[3] = target: Serine/threonine-protein kinase Chk1 (Homo sapiens) (UniProt O14757); assay: Inhibition of CHK1 (unknown origin) assessed as residual activity at 1 uM by Kinomescan method relative to control
[4] = target: Casein kinase I isoform gamma-2 (Homo sapiens) (UniProt P78368); assay: Inhibition of CK1g2 (unknown origin) assessed as residual activity at 1 uM by Kinomescan method relative to control
[5] = target: Casein kinase II subunit alpha (Homo sapiens) (UniProt P68400); assay: Inhibition of CK2alpha (unknown origin) assessed as residual activity at 1 uM by Kinomescan method relative to control
[6] = target: Casein kinase II subunit alpha' (Homo sapiens) (UniProt P19784); assay: Inhibition of CK2a2 (unknown origin) assessed as residual activity at 1 uM by Kinomescan method relative to control
[7] = target: Dual specificity tyrosine-phosphorylation-regulated kinase 2 (Homo sapiens) (UniProt Q92630); assay: Inhibition of wild-type human full length DYRK2 (M1 to S528 residues) expressed in mammalian expression system assessed as residual activity at 1 uM by Kinomescan method relative to control
[8] = target: Ephrin type-A receptor 3 (Homo sapiens) (UniProt P29320); assay: Inhibition of wild-type human partial length EPHA3 (D604 to K889 residues) expressed in bacterial expression system assessed as residual activity at 1 uM by Kinomescan method relative to control
[9] = target: Ephrin type-A receptor 4 (Homo sapiens) (UniProt P54764); assay: Inhibition of wild-type human partial length EPHA4 (T601 to R897 residues) expressed in bacterial expression system assessed as residual activity at 1 uM by Kinomescan method relative to control
[10] = target: Tyrosine-protein kinase Fes/Fps (Homo sapiens) (UniProt P07332); assay: Inhibition of wild-type human partial length FES (I527 to R822 residues) expressed in bacterial expression system assessed as residual activity at 1 uM by Kinomescan method relative to control
[11] = target: Mitogen-activated protein kinase kinase kinase kinase 1 (Homo sapiens) (UniProt Q92918); assay: Inhibition of wild-type human full length HPK1 (M1 to R799 residues) expressed in bacterial expression system assessed as residual activity at 1 uM by Kinomescan method relative to control
[12] = target: Inhibitor of nuclear factor kappa-B kinase subunit alpha (Homo sapiens) (UniProt O15111); assay: Inhibition of wild-type human full length IKK-alpha (M1 to E745 residues) expressed in mammalian expression system assessed as residual activity at 1 uM by Kinomescan method relative to control
[13] = target: Serine/threonine-protein kinase MRCK alpha (Homo sapiens) (UniProt Q5VT25); assay: Inhibition of wild-type human partial length MRCKA (L57 to V418 residues) expressed in bacterial expression system assessed as residual activity at 1 uM by Kinomescan method relative to control
[14] = target: MAP kinase-activated protein kinase 3 (Homo sapiens) (UniProt Q16644); assay: Inhibition of human MAPKAPK3 assessed as residual activity at 1 uM by Kinomescan method relative to control
[15] = target: Myosin light chain kinase (Homo sapiens) (UniProt Q32MK0); assay: Inhibition of wild-type human partial length MLCK (D488 to K800 residues) expressed in bacterial expression system assessed as residual activity at 1 uM by Kinomescan method relative to control
[16] = target: Mitogen-activated protein kinase kinase kinase 11 (Homo sapiens) (UniProt Q16584); assay: Inhibition of wild-type human partial length MLK3 (I77 to W399 residues) expressed in bacterial expression system assessed as residual activity at 1 uM by Kinomescan method relative to control
[17] = target: Serine/threonine-protein kinase PAK 6 (Homo sapiens) (UniProt Q9NQU5); assay: Inhibition of wild-type human partial length PAK6 (N298 to C681 residues) expressed in bacterial expression system assessed as residual activity at 1 uM by Kinomescan method relative to control
[18] = target: Protein kinase C theta type (Homo sapiens) (UniProt Q04759); assay: Inhibition of PKCtheta (unknown origin) assessed as residual activity at 1 uM by Kinomescan method relative to control
[19] = target: Receptor-interacting serine/threonine-protein kinase 2 (Homo sapiens) (UniProt O43353); assay: Inhibition of wild-type human partial length RIPK2 (M1 to K310 residues) expressed in bacterial expression system assessed as residual activity at 1 uM by Kinomescan method relative to control
[20] = target: Dual serine/threonine and tyrosine protein kinase (Homo sapiens) (UniProt Q6XUX3); assay: Inhibition of wild-type human full length RIPK5 (M1 to T929 residues) expressed in mammalian expression system assessed as residual activity at 1 uM by Kinomescan method relative to control
[21] = target: Macrophage-stimulating protein receptor (Homo sapiens) (UniProt Q04912); assay: Inhibition of wild-type human partial length MST1R (I1057 to L1363 residues) expressed in bacterial expression system assessed as residual activity at 1 uM by Kinomescan method relative to control
[22] = target: Serine/threonine-protein kinase TAO1 (Homo sapiens) (UniProt Q7L7X3); assay: Inhibition of wild-type human partial length TAOK1 (M1 to A320 residues) expressed in mammalian expression system assessed as residual activity at 1 uM by Kinomescan method relative to control
[23] = target: Serine/threonine-protein kinase ULK1 (Homo sapiens) (UniProt O75385); assay: Inhibition of wild-type human partial length ULK1 (M1 to T309 residues) expressed in mammalian expression system assessed as residual activity at 1 uM by Kinomescan method relative to control
[24] = target: Serine/threonine-protein kinase N3 (Homo sapiens) (UniProt Q6P5Z2); assay: Inhibition of PKN3 (unknown origin) assessed as residual activity at 1 uM by Kinomescan method relative to control
[25] = target: Serine/threonine-protein kinase tousled-like 1 (Homo sapiens) (UniProt Q9UKI8); assay: Inhibition of wild-type human partial length TLK1 (K447 to A754 residues) expressed in bacterial expression system assessed as residual activity at 1 uM by Kinomescan method relative to control
[26] = target: Mitogen-activated protein kinase kinase kinase 12 (Homo sapiens) (UniProt Q12852); assay: Inhibition of wild-type human full length DLK (M1 to P859 residues) expressed in mammalian expression system assessed as residual activity at 1 uM by Kinomescan method relative to control

Sequence of Protein kinase C theta type (Homo sapiens) (Q04759 whole entry, looked up, the tested form may be a part): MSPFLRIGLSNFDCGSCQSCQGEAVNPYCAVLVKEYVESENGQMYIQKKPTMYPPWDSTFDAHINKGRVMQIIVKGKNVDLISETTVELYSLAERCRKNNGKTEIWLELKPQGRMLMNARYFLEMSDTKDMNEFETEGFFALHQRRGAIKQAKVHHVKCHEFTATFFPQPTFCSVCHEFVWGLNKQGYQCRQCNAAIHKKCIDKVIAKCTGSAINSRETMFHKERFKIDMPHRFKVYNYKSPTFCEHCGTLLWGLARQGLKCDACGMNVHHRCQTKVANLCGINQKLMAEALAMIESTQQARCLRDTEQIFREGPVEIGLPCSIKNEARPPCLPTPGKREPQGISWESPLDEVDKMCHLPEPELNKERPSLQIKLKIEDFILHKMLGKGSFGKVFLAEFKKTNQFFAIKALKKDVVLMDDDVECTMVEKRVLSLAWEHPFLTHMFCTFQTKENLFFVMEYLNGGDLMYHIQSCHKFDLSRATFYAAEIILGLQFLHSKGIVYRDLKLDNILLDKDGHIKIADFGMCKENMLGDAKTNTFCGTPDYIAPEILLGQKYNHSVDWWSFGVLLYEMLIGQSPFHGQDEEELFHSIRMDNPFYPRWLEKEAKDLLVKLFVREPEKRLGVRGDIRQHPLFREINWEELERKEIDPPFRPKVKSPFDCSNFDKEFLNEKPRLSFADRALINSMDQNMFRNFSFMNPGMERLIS
Sequence of MAP kinase-activated protein kinase 3 (Homo sapiens) (Q16644 whole entry, looked up, the tested form may be a part): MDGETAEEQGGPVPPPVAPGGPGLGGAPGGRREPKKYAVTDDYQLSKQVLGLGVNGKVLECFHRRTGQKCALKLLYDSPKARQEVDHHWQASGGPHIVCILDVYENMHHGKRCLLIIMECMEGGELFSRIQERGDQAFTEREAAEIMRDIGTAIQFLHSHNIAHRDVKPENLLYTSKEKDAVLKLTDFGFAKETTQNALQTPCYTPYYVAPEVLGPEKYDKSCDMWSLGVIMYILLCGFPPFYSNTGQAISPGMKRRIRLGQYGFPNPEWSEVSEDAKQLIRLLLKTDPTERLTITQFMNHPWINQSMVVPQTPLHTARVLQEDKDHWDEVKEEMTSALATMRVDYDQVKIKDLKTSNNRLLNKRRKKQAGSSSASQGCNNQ
Sequence of Casein kinase II subunit alpha (Homo sapiens) (P68400 whole entry, looked up): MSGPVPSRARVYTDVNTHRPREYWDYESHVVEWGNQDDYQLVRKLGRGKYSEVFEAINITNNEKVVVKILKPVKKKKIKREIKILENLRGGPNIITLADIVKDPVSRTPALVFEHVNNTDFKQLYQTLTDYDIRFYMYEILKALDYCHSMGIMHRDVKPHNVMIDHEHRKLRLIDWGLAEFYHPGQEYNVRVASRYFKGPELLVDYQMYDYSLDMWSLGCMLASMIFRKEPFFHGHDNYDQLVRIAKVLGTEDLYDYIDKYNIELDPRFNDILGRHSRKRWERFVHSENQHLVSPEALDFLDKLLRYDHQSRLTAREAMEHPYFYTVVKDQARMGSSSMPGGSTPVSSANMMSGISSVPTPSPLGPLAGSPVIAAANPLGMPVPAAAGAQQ
Sequence of Inhibitor of nuclear factor kappa-B kinase subunit alpha (Homo sapiens) (O15111 whole entry, the tested form may be a part): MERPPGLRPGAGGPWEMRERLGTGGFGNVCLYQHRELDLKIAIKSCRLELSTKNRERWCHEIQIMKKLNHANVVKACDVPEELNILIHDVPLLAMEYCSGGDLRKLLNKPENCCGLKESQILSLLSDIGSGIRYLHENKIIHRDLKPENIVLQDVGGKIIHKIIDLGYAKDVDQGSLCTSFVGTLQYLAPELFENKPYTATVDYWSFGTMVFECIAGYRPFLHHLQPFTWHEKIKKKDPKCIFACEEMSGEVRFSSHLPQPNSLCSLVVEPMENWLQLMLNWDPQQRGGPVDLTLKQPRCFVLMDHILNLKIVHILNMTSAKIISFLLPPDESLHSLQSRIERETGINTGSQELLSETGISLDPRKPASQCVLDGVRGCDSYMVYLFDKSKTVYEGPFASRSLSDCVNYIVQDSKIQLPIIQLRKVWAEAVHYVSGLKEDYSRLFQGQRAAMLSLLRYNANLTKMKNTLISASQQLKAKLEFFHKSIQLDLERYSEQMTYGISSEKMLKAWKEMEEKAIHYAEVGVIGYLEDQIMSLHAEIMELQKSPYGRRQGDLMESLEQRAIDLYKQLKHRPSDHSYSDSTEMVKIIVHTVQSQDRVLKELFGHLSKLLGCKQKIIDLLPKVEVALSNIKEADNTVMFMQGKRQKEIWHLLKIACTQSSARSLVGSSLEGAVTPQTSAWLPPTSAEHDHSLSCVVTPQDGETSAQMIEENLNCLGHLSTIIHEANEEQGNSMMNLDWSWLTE
Sequence of Serine/threonine-protein kinase ULK1 (Homo sapiens) (O75385 whole entry, the tested form may be a part): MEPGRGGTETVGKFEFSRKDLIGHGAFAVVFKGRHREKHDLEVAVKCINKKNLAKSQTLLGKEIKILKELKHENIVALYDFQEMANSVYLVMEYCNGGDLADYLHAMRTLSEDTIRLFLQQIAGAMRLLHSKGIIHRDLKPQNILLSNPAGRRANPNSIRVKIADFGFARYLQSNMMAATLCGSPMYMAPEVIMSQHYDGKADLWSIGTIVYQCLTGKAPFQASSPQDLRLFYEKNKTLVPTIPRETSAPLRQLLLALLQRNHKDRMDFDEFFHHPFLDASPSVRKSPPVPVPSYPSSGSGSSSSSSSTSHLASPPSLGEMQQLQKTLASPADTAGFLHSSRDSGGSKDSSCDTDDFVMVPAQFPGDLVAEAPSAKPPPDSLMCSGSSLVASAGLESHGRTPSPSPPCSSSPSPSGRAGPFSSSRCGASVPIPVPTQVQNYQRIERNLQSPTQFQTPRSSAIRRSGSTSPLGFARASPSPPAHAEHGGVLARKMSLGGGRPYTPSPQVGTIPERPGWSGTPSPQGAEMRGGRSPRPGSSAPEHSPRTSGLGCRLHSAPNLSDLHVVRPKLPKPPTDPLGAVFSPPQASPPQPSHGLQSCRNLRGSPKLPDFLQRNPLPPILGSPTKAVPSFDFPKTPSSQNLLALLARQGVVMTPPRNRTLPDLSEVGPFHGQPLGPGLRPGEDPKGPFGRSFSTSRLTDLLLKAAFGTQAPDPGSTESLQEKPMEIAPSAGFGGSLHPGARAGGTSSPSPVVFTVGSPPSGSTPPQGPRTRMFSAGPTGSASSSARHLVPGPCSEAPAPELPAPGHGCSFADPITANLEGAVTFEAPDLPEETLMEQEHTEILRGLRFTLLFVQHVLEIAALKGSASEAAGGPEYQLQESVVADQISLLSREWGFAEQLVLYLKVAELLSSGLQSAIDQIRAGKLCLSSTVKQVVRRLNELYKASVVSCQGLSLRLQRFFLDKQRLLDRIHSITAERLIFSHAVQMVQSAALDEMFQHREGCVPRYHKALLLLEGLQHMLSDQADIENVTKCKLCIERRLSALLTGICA
Sequence of Serine/threonine-protein kinase 38 (Homo sapiens) (Q15208 2-465 limits assumed): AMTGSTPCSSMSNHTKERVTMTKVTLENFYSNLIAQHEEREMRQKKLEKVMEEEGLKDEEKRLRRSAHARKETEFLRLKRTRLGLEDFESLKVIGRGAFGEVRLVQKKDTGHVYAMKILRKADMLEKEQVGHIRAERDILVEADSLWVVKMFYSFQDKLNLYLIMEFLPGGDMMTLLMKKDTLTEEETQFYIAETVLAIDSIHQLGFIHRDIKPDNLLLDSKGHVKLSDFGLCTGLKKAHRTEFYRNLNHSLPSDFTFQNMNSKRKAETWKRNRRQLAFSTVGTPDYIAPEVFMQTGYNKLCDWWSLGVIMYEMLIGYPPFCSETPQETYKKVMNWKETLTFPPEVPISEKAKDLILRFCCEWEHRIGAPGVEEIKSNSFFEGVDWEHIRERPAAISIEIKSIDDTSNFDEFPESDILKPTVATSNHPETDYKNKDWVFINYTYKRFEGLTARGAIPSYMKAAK
Sequence of Myosin light chain kinase (Homo sapiens) (Q32MK0 whole entry, the tested form may be a part): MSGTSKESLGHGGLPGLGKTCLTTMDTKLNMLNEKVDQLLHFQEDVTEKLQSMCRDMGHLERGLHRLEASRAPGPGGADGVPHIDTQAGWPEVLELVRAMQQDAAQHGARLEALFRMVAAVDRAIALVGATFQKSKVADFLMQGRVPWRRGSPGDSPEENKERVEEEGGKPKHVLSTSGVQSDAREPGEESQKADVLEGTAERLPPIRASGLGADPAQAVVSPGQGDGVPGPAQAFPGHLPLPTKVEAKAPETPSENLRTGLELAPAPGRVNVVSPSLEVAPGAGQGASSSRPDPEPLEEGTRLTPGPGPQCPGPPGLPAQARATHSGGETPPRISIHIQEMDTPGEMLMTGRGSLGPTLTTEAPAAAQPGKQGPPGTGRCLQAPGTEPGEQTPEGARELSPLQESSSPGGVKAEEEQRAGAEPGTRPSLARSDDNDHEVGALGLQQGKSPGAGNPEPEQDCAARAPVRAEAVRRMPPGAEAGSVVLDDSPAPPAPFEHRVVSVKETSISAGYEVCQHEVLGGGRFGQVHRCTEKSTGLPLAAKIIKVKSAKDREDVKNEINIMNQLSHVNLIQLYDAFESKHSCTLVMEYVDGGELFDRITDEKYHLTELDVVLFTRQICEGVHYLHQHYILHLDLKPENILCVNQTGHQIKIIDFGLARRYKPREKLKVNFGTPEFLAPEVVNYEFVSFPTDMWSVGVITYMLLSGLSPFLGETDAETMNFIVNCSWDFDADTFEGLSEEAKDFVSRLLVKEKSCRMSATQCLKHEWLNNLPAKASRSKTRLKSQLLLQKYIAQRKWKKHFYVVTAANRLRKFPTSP
Sequence of Aurora kinase A (Homo sapiens) (O14965 whole entry, the tested form may be a part): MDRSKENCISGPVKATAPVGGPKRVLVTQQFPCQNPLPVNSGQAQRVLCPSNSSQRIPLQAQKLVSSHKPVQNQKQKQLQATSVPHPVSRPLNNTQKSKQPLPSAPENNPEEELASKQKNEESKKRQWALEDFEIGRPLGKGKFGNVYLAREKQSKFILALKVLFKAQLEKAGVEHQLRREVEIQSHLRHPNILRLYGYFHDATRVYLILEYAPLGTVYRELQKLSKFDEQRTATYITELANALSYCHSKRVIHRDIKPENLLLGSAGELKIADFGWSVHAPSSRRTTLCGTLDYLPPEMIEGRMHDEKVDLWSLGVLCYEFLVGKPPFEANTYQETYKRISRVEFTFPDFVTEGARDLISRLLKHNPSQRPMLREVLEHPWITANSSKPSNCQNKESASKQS

How did the Activity [1] turn out when `CCOc1nc(Nc2ccc(C(=O)N3CCOCC3)cc2OC)nc2[nH]ccc12` was run?
Its Activity is 97.8%.

What about the Activity [2] of the same compound?
Its Activity is 94.8%.

And the Activity (Homo sapiens)?
Its Activity is 91.6%.

What about the Activity [3] of the same compound?
The Activity was 84.5%.

What about the Activity [4] of the same compound?
The Activity was 95.6%.

And the Activity [5]?
Its Activity is 79.9%.

And the Activity [6]?
Its Activity is 86.1%.

And the Activity [7]?
The Activity was 81.3%.

What about the Activity [8] of the same compound?
Its Activity is 99.6%.

And the Activity [9]?
Its Activity is 107%.

What about the Activity [10] of the same compound?
The Activity was 43.2%.

And the Activity [11]?
The Activity was 86.6%.

What about the Activity [12] of the same compound?
The Activity was 85.3%.

What about the Activity [13] of the same compound?
The Activity was 99.4%.

What about the Activity [14] of the same compound?
Its Activity is 101%.

What about the Activity [15] of the same compound?
Its Activity is 15.8%.

What about the Activity [16] of the same compound?
Its Activity is 101%.

What about the Activity [17] of the same compound?
The Activity was 99.2%.

What about the Activity [18] of the same compound?
The Activity was 83.7%.

And the Activity [19]?
The Activity was 91.7%.

And the Activity [20]?
Its Activity is 111%.

And the Activity [21]?
The Activity was 96.9%.

And the Activity [22]?
The Activity was 89.9%.

And the Activity [23]?
The Activity was 86.1%.

What about the Activity [24] of the same compound?
Its Activity is 96.5%.

And the Activity [25]?
The Activity was 98.1%.

And the Activity [26]?
Its Activity is 93.9%.
